In US10933059B2, “Combination, application thereof and treatment method” (KANGPU BIOPHARMACEUTICALS, LTD., priority 2016, dated 2021):

Key:
Type in all cases: cell-based
PSA (Prostate antigen) = experiment: PSA inhibition rate experiment (PSA secretion in supernatant of VCap cells); conditions: Homo sapiens, 120 h
Method: Cells were collected in exponential growth phase for viable cell count. The cell suspension was adjusted to 4.17×10E4/ml with the medium mentioned above. 120 μl of cell suspension was added to each well of a 96-well cell culture plateat, a final concentration of cells was 5000 cells/well. The cells were incubated overnight in a 37° C., 5% CO2 incubator.
10 mM stocking solution was prepared by dissolving each tested compound in DMSO. […] The final concentration of DMSO per well was 0.2%. The cells were incubated for 5 days in a 37° C., 5% CO2 incubator.
After 5 days' drug treatment, the cell supernatant of each well was collected, and centrifuged at 2000 r/min for 5 minutes, then transferred to a clean EP tube for PSA detection.
Wherein, Vsample is the PSA reading of the drug treatment group, and VDMSO is the average value of PSA of the solvent control group.

LNCap cells = experiment: CTG cell proliferation assay on LNCap cells (method of Effect embodiment 1); conditions: tested compound alone
Vcap cells = experiment: CTG cell proliferation assay on Vcap cells (compounds alone or in combination, 5 days); conditions: tested compound alone
Method: In vitro test of the inhibition effect of the compound in combination with androgen receptor pathway modulators on the prostate cancer cell proliferation.
Inhibition effect of the compounds such as B101, B102, B103, B104, B105, B106, C111 and the like, androgen receptor pathway modulators, hormone compounds, alone or in combination with each other on the prostate cancer cell proliferation were tested on Vcap cells (androgen receptor (+) prostate cancer cells) (ATCC, catalogue number CRL-2876). The specific experimental operation was as follows: 5×10^3 Vcap cells per well were inoculated into 96-well plates with transparent bottom and white wall (Corning, catalogue number CLS3903) containing the specific medium, and were cultured in a 37° C., 5% CO2 incubator for 24 hours. The tested compounds and the androgen receptor pathway modulators were prepared to a 150 mM stocking solution with DMSO (Sigma, catalogue number 276855), diluted with culture medium to the desired concentrations (the final concentration of DMSO is 0.2%), and then added to each well, 2 wells/concentration, followed by being incubated in a 37° C., 5% CO2 incubator for 5 days. The tested compounds were used alone or in combination with other androgen receptor pathway modulators and/or hormone compounds respectively. […] After that, 100 μl of CellTiter-Glo® cell viability assay reagent (Promega, catalogue number G7570) was added to each well and mixed well on a vibrator for 10 minutes to induce cell lysis. The 96-well plate was placed at room temperature for 10 minutes, so as to stabilize its luminescence signal. A white bottom membrane was pasted on the bottom of the plate and the plate was tested using EnSpire.

SMILES | inhibition at 0.5 µM (PSA (Prostate antigen)) | Survival rate of LNCap cells (LNCap cells; 0.1 μM) | Survival rate of LNCap cells (LNCap cells; 1 μM) | Survival rate of LNCap cells (LNCap cells; 1 μM, listed as enzalutamide) | Survival rate of LNCap cells (LNCap cells; 10 μM) | viability at 0.1 µM (Vcap cells; Homo sapiens, VCaP, 120 h, 0.1 μM, read-out: Survival rate of Vcap cells) | viability at 1 µM (Vcap cells; Homo sapiens, VCaP, 120 h, 1 μM, read-out: Survival rate of Vcap cells) | viability at 10 µM (Vcap cells; Homo sapiens, VCaP, 120 h, 10 μM, read-out: Survival rate of Vcap cells) | Survival rate of Vcap cells (Vcap cells; 1 μM)
CNC(=O)c1ccc(N2C(=S)N(c3ccc(C#N)c(C(F)(F)F)c3)C(=O)C2(C)C)cc1F [Enzalutamide, reference compound] | 30.7% | 101.5% | 70.5% | 70.5% | 59.3% |  |  |  | 
C[C@]12CC[C@H](O)CC1=CC[C@@H]1[C@@H]2CC[C@]2(C)C(n3cnc4ccccc43)=CC[C@@H]12 [Galeterone, reference compound] |  | 104.9% | 79% |  | 24.2% | 95.9% | 62.8% | 19.3% | 62.8%
